Measurements: patent US6583180B2, “Glucocorticoid receptor modulators” (Abbott Laboratories, priority 2001, dated 2003)

Target: T1, Human glucocorticoid receptors (Homo sapiens, UniProt P04150)
T1 construct: made in house; host or cells: Sf9 insect cells, recombinant baculovirus (BAC-TO-BAC)
T1 sequence (P04150 1-777): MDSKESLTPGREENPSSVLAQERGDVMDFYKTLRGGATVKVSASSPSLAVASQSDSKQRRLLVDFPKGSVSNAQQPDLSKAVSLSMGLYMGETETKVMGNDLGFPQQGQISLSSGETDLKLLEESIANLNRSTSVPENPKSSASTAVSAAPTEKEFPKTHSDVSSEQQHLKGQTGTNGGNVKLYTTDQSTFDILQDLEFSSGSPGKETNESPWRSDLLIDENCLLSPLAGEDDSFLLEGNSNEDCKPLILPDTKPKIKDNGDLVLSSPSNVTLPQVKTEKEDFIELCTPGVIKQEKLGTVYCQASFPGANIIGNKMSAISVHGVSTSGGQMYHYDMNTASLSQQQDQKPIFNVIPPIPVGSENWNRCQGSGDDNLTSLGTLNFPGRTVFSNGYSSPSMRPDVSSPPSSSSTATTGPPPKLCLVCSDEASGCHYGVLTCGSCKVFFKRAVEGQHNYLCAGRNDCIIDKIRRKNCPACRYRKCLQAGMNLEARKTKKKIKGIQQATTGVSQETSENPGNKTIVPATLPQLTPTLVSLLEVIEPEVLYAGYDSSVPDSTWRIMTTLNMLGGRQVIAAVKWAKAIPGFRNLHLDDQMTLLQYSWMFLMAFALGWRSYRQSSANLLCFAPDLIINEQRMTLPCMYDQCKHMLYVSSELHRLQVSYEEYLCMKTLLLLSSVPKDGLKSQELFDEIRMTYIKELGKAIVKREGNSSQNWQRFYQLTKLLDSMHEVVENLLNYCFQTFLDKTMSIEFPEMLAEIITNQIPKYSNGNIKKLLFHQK
Assay: Radioligand filter binding assay, displacement of 3[H]-dexamethasone from hGR
Conditions: read-out: GR Binding (% Inhibition at 1.7 μM)
From the text: Dexamethasone hereafter referred to as dex was purchased from SIGMA. […] Human glucocorticoid receptors were extracted from Sf9 cells infected with a recombinant baculovirus transfer vector containing the cloned hGR genes. Recombinant baculovirus was generated utilizing the BAC-TO-BAC expression system (Life Technologies) in accordance to instruction from the supplier. The hGR coding sequences were cloned into a baculovirus transfer vector by standard techniques. The recombinant baculoviruses expressing hGR were amplified and used to infect Sf9 cells. Infected cells were harvested 48 hrs post infection. […] The concentration of hGR in the extract was measured as specific ^3[H]-dex binding with the G25-assay as described in J. Steroid Biochem. Molec. […] The extract was aliquoted and stored at −70° C.
The filter binding assay: Dilution series of the test compounds and dex as reference were made from 10 mM (1 mM dex) stock solutions in DMSO. 10 μl of the dilutions was added in duplicates to the wells. The cell extracts were diluted 10 fold in EPMo+MTG buffer (1 mM EDTA, HPO4 20 mM (pH8), 6 mM MTG). […] 110 μl of the diluted ^3[H]-dex were added to the wells. The final concentration of hGR in the experiment was estimated to 1 nM. All preparations were made in […] on ice and with +4° C. temperated buffers. The plates were incubated over night at +4° C. (15-20 hours).
The incubation was stopped by filtration through GF/B filter on the Tomtec Cellharvester. The filtration on the Tomtec Cellharvester was programmed as follows: 1) Preparation before filtration with EP buffer (1 mM EDTA 20 mM HPO4 (pH8)) 2×[Wash/Asp 0.6 sec., Asp 0.5 sec.]; 2) Prewet of GF/B filter with EP+PEI buffer (EP buffer, 0.3% Polyethylenimine) [Asp 0.8 sec.]; 3) Filtration/harvesting of the 96-well incubation plate 3×[Wash/Asp 0.6 sec., Asp 0.5 sec.]. The GF/B filter was dried for at least 1 hour at 65° C. A MeltiLex scintillation wax was melted onto the filter with the Microsealer. The filter was placed in a samplebag, which was thereafter trimmed with scissors to fit the filter cassette. The cassette were placed in the Microbeta and measured for 1 min/position, returning ccpm (corrected counts per minute).
b=((bmax−bmin)/(1+(I/IC50)^S))+bminI
The Microbeta-instrument generates the mean cpm (counts per minute) value/minute and corrects for individual variations between the detectors thus generating corrected cpm values.

| inhibition at 1.7 µM | Structure (SMILES) |
| --- | --- |
| 89.8% | Cc1c(NS(C)(=O)=O)cccc1N(Cc1ccccc1)Cc1ccc(Oc2cccc(OC3CCOC3)c2)cc1 (stereo not shown) [Example 288, N-[3-(benzyl{4-[3-(tetrahydrofuran-3-yloxy)phenoxy]benzyl}amino)-2-methylphenyl]methanesulfonamide] |
| 92.2% | Cc1c(NS(C)(=O)=O)cccc1N(Cc1ccccc1)Cc1ccc(Oc2ccc(OCCCCC(=O)N3CCC[C@H]3C(=O)O)cc2)cc1 [Example 267, 1-[5-(4-{4-[(benzyl{2-methyl-3-[(methylsulfonyl)amino]phenyl}amino)methyl]phenoxy}phenoxy)pentanoyl]-L-proline] |
| 89.9% | Cc1c(NS(C)(=O)=O)cccc1N(Cc1ccccc1)Cc1ccc(Oc2cccc(OCCCC(=O)N3CCC[C@H]3C(=O)O)c2)cc1 [Example 282, 1-[4-(3-{4-[(benzyl{2-methyl-3-[(methylsulfonyl)amino]phenyl}amino)methyl]phenoxy}phenoxy)butanoyl]proline] |
| 97% | Cc1c(NS(C)(=O)=O)cccc1N(Cc1ccc(Oc2ccc(Cl)c(OCC(=O)O)c2)cc1)Cc1ccc(Br)cc1F [Example 315, (5-(4-(((4-bromo-2-fluorobenzyl)(2-methyl-3-((methylsulfonyl)amino)phenyl)amino)methyl)phenoxy)-2-chlorophenoxy)acetic acid] |
| 91.2% | Cc1c(NS(C)(=O)=O)cccc1N(Cc1ccccc1)Cc1ccc(Oc2ccc(OCC(=O)N[C@H](C(=O)O)C(C)C)cc2)cc1 [Example 273, N-[(4-{4-[(benzyl{2-methyl-3-[(methylsulfonyl)amino]phenyl}amino)methyl]phenoxy}phenoxy)acetyl]-L-valine] |
| 96.6% | Cc1c(NS(C)(=O)=O)cccc1N(Cc1ccc(Oc2ccc(Cl)c(OCC(=O)O)c2)cc1)Cc1ccc(C(=O)c2ccccc2)cc1 [Example 314, (5-(4-(((4-benzoylbenzyl)(2-methyl-3-((methylsulfonyl)amino)phenyl)amino)methyl)phenoxy)-2-chlorophenoxy)acetic acid] |
| 94.2% | CCCCCCc1ccc(Oc2ccc(CN(Cc3ccc(F)cc3F)c3cccc(NS(C)(=O)=O)c3C)cc2)cc1OCC(=O)O [Example 238, (5-{4-[((2,4-difluorobenzyl){2-methyl-3-[(methylsulfonyl)amino]phenyl}amino)methyl]phenoxy}-2-hexylphenoxy)acetic acid] |
| 96.1% | CCc1ccc(Oc2ccc(CN(Cc3ccc(F)cc3F)c3cccc(NS(C)(=O)=O)c3C)cc2)cc1OCC(=O)O [Example 236, (5-{4-[((2,4-difluorobenzyl){2-methyl-3-[(methylsulfonyl)amino]phenyl}amino)methyl]phenoxy}-2-ethylphenoxy)acetic acid] |
| 90.2% | Cc1c(NS(C)(=O)=O)cccc1N(Cc1ccccc1)Cc1ccc(Oc2ccc(OCC(=O)N(C)CC(=O)O)cc2)cc1 [Example 272, N-[(4-{4-[(benzyl{2-methyl-3-[(methylsulfonyl)amino]phenyl}amino)methyl]phenoxy}phenoxy)acetyl]-N-methylglycine] |
| 87.4% | Cc1c(NS(C)(=O)=O)cccc1N(Cc1ccccc1)Cc1ccc(Oc2ccc(CCC(=O)OCc3ccccc3)cc2)cc1 [Example 98, benzyl 3-(4-{4-[(benzyl{2-methyl-3-[(methylsulfonyl)amino]phenyl}amino)methyl]phenoxy}phenyl)propanoate] |
| 95.7% | Cc1c(NS(C)(=O)=O)cccc1N(Cc1ccc(Br)cc1)Cc1ccc(Oc2ccc(Cl)c(OCC(=O)O)c2)cc1 [Example 308, (5-(4-(((4-bromobenzyl)(2-methyl-3-((methylsulfonyl)amino)phenyl)amino)methyl)phenoxy)-2-chlorophenoxy)acetic acid] |
| 90.9% | Cc1c(NS(C)(=O)=O)cccc1N(Cc1ccccc1)Cc1ccc(C(=O)c2cccc(OCc3ccccc3)c2)cc1 [Example 247, N-[3-(benzyl{4-[3-(benzyloxy)benzoyl]benzyl}amino)-2-methylphenyl]methanesulfonamide] |
| 89.7% | Cc1c(NS(C)(=O)=O)cccc1N(Cc1ccccc1)Cc1ccc(Oc2cccc(OC[C@H](O)CO)c2)cc1 [Example 285, N-(3-{benzyl[4-(3-{[(2R)-2,3-dihydroxypropyl]oxy}phenoxy)benzyl]amino}-2-methylphenyl)methanesulfonamide] |
| 91.1% | CC[C@H](C)[C@H](NC(=O)CCCCOc1ccc(Oc2ccc(CN(Cc3ccccc3)c3cccc(NS(C)(=O)=O)c3C)cc2)cc1)C(=O)O [Example 270, N-[5-(4-{4-[(benzyl{2-methyl-3-[(methylsulfonyl)amino]phenyl}amino)methyl]phenoxy}phenoxy)pentanoyl]-L-isoleucine] |
| 96% | Cc1c(NS(C)(=O)=O)cccc1N(Cc1ccc(Oc2cccc(OC[C@@H]3C[C@@H](O)CC(=O)O3)c2)cc1)Cc1ccc(F)cc1F [Example 231, N-(3-((2,4-difluorobenzyl)(4-(3-(((2S,4R)-6-oxo-4-hydroxytetrahydro-2H-pyran-2-yl)methoxy)phenoxy)benzyl)amino)-2-methylphenyl)methanesulfonamide] |
| 91.2% | CC[C@H](C)[C@H](NC(=O)CCCOc1ccc(Oc2ccc(CN(Cc3ccccc3)c3cccc(NS(C)(=O)=O)c3C)cc2)cc1)C(=O)O [Example 259, N-[4-(4-{4-[(benzyl{2-methyl-3-[(methylsulfonyl)amino]phenyl}amino)methyl]phenoxy}phenoxy)butanoyl]-L-isoleucine] |
| 93.3% | Cc1c(NS(C)(=O)=O)cccc1N(Cc1ccccc1)Cc1ccc(Oc2cccc(OCCCC(=O)N(C)CC(=O)O)c2)cc1 [Example 240, N-[4-(3-{4-[(benzyl{2-methyl-3-[(methylsulfonyl)amino]phenyl}amino)methyl]phenoxy}phenoxy)butanoyl]-N-methylglycine] |
| 97.3% | Cc1c(NS(C)(=O)=O)cccc1N(Cc1ccc(Oc2ccc(Cl)c(OCC(=O)O)c2)cc1)Cc1ccc(Cl)cc1Br [Example 312, (5-(4-(((2-bromo-4-chlorobenzyl)(2-methyl-3-((methylsulfonyl)amino)phenyl)amino)methyl)phenoxy)-2-chlorophenoxy)acetic acid] |
| 96.3% | Cc1c(NS(C)(=O)=O)cccc1N(Cc1ccccc1)Cc1ccc(C(=O)c2cccc(OCC3CCOC3)c2)cc1 (stereo not shown) [Example 245, N-[3-(benzyl{4-[3-(tetrahydrofuran-3-ylmethoxy)benzoyl]benzyl}amino)-2-methylphenyl]methanesulfonamide] |
| 89.4% | Cc1c(NS(C)(=O)=O)cccc1N(Cc1ccccc1)Cc1ccc(Oc2cccc(OC3CCN(C)C3)c2)cc1 (stereo not shown) [Example 292, N-{3-[benzyl(4-{3-[(1-methylpyrrolidin-3-yl)oxy]phenoxy}benzyl)amino]-2-methylphenyl}methanesulfonamide] |
| 28.1% | Cc1c(NS(C)(=O)=O)cccc1N(Cc1ccccc1)Cc1ccc(-c2ccccc2C#N)cc1 [Example 146, N-(3-{benzyl[(2′-cyano-1,1′-biphenyl-4-yl)methyl]amino}-2-methylphenyl)methanesulfonamide] |
| 89.5% | Cc1c(NS(C)(=O)=O)cccc1N(Cc1ccccc1)Cc1ccc(Oc2ccc(OCCCCC(=O)N(C)CC(=O)O)cc2)cc1 [Example 264, N-[5-(4-{4-[(benzyl{2-methyl-3-[(methylsulfonyl)amino]phenyl}amino)methyl]phenoxy}phenoxy)pentanoyl]-N-methylglycine] |
